# Where a name gives a salt, the structure may show the parent alone.
# Target: human activated kallikrein enzyme (Homo sapiens, UniProt P03952)
# Assay: Inhibition of human activated plasma kallikrein, fluorogenic PFR-AMC substrate, 500 pM enzyme format
# Format: biochemical
# Settings: 500 pM activated kallikrein; 300 μM PFR-AMC; 30 min preincubation; 10 min room temperature; pH 7.5; read-out: Primary Dose Response Assay: Average EC50
# Outline: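 Using fluorogenic PFR-AMC at 300 μM, cleavage by 500 pM human activated kallikrein ran 10 min at room temperature, read at 460 nm emission (380 nm excitation). Enzyme and compounds were first preincubated 30 min in 20 mM Tris pH 7.5, 150 mM NaCl, 1 mM EDTA, 0.1% PEG-400, 0.1% Triton X-100.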
# human activated kallikrein enzyme, sequence (P03952 391-638 limits assumed): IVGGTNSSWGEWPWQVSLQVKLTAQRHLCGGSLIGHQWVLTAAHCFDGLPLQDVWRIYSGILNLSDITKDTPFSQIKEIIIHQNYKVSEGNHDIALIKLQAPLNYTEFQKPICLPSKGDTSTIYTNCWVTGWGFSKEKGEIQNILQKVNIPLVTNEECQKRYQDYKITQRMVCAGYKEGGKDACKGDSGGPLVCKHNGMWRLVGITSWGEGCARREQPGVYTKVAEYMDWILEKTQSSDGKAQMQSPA
# human activated kallikrein enzyme, sequence (P03952 20-390 partner limits assumed): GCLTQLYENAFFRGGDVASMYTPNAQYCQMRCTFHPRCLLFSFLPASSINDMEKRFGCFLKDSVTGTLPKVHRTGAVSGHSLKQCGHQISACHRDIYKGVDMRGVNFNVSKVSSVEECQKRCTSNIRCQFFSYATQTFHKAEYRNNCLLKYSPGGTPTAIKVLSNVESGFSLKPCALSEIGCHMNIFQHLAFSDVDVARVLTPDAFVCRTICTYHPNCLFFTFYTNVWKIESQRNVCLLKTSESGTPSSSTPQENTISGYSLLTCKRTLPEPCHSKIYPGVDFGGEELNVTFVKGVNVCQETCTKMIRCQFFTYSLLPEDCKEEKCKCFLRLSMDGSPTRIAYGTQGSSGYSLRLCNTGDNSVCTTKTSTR
row,SMILES,EC50
1,"Cc1cc2c(N)nccc2c(C)c1CNc1cc(C(F)c2cn3cc(C4CC4)ccc3n2)ncn1 (stereo not shown) [Example 405, 6-(((6-((6-cyclopropylimidazo[1,2-a]pyridin-2-yl)fluoromethyl)pyrimidin-4-yl)amino)methyl)-5,7-dimethylisoquinolin-1-amine]",< 1 nM
2,"Cc1cc2c(N)nccc2c(C)c1CNc1cc(C(O)c2cn3cc(C4CC4)ccc3n2)ncn1 (stereo not shown) [Example 406, (6-(((1-amino-5,7-dimethylisoquinolin-6-yl)methyl)amino)pyrimidin-4-yl)(6-cyclopropylimidazo[1,2-a]pyridin-2-yl)methanol]",< 1 nM
3,"Cc1cc2c(N)nccc2c(C)c1CNc1cc(OCc2ccc3ncc(Cl)cc3c2)cnn1 [Example 407, 6-(((5-((3-chloroquinolin-6-yl)methoxy)pyridazin-3-yl)amino)methyl)-5,7-dimethylisoquinolin-1-amine]",< 1 nM
4,"Cc1ccc2ncc(COc3cnnc(NCc4c(C)cc5c(N)nccc5c4C)c3)cc2c1 [Example 408, 5,7-dimethyl-6-(((5-((6-methylquinolin-3-yl)methoxy)pyridazin-3-yl)amino)methyl)isoquinolin-1-amine]",< 1 nM
5,"Cc1cc2c(N)nccc2c(C)c1CNc1cc(OCc2ccc3ncccc3c2)cnn1 [Example 409, 5,7-dimethyl-6-(((5-(quinolin-6-ylmethoxy)pyridazin-3-yl)amino)methyl)isoquinolin-1-amine]",1 to 10 nM
6,"Cc1cc2c(N)nccc2c(C)c1CNc1cc(OCc2ccc3nccn3c2)cnn1 [Example 410, 6-(((5-(imidazo[1,2-a]pyridin-6-ylmethoxy)pyridazin-3-yl)amino)methyl)-5,7-dimethylisoquinolin-1-amine]",100 to 1000 nM
7,"Cc1cc2c(N)nccc2c(C)c1CNc1cc(OCc2cn3ccccc3n2)cnn1 [Example 411, 6-(((5-(imidazo[1,2-a]pyridin-2-ylmethoxy)pyridazin-3-yl)amino)methyl)-5,7-dimethylisoquinolin-1-amine]",10 to 100 nM
8,"Cc1ccc2cc(COc3cnnc(NCc4c(C)cc5c(N)nccc5c4C)c3)ccc2n1 [Example 412, 5,7-dimethyl-6-(((5-((2-methylquinolin-6-yl)methoxy)pyridazin-3-yl)amino)methyl)isoquinolin-1-amine]",< 1 nM
9,"Cc1cc2c(N)nccc2c(C)c1CNc1cc(OCc2ccc3c(cnn3C)c2)cnn1 [Example 413, 5,7-dimethyl-6-(((5-((1-methyl-1H-indazol-5-yl)methoxy)pyridazin-3-yl)amino)methyl)isoquinolin-1-amine]",1 to 10 nM
10,"Cc1cc2c(N)nccc2c(C)c1CNc1cc(OCc2cnc3ccccn23)cnn1 [Example 414, 6-(((5-(imidazo[1,2-a]pyridin-3-ylmethoxy)pyridazin-3-yl)amino)methyl)-5,7-dimethylisoquinolin-1-amine]",> 1000 nM
11,"Cc1cc2c(N)nccc2c(C)c1CNc1cc(OCc2cnc3ccc(F)cc3c2)cnn1 [Example 415, 6-(((5-((6-fluoroquinolin-3-yl)methoxy)pyridazin-3-yl)amino)methyl)-5,7-dimethylisoquinolin-1-amine]",< 1 nM
12,"Cc1cc2c(N)nccc2c(C)c1CNc1cc(OCc2cc3cc(Cl)ccc3s2)cnn1 [Example 417, 6-(((5-((5-chlorobenzo[b]thiophen-2-yl)methoxy)pyridazin-3-yl)amino)methyl)-5,7-dimethylisoquinolin-1-amine, formic acid salt]",1 to 10 nM
13,"Cc1cc2c(N)nccc2c(C)c1CNc1cc(OCc2ccc3nc(C)c(C)nc3c2)cnn1 [Example 418, 6-(((5-((2,3-dimethylquinoxalin-6-yl)methoxy)pyridazin-3-yl)amino)methyl)-5,7-dimethylisoquinolin-1-amine, formic acid salt]",< 1 nM
14,"Cc1cnc2ccc(C(C)Oc3cnnc(NCc4c(C)cc5c(N)nccc5c4C)c3)cc2c1 (stereo not shown) [Example 419, 5,7-dimethyl-6-(((5-(1-(3-methylquinolin-6-yl)ethoxy)pyridazin-3-yl)amino)methyl)isoquinolin-1-amine]",< 1 nM

# Continued, values first:
row,EC50,SMILES
1,< 1 nM,"Cc1cc2c(N)nccc2c(C)c1CNc1cc(OC(C)c2ccc3ncc(Cl)cc3c2)cnn1 (stereo not shown) [Example 420, 6-(((5-(1-(3-chloroquinolin-6-yl)ethoxy)pyridazin-3-yl)amino)methyl)-5,7-dimethylisoquinolin-1-amine formic acid salt]"
2,1 to 10 nM,"Cc1cc2c(N)nccc2c(C)c1CNc1cc(OCc2ccc3nccc(C)c3c2)cnn1 [Example 421, 5,7-dimethyl-6-(((5-((4-methylquinolin-6-yl)methoxy)pyridazin-3-yl)amino)methyl)isoquinolin-1-amine, formic acid]"
3,< 1 nM,"Cc1cc2c(N)nccc2c(C)c1CNc1cc(OCc2ccc3ncc(C(F)(F)F)cc3c2)cnn1 [Example 423, 5,7-dimethyl-6-(((5-((3-(trifluoromethyl)quinolin-6-yl)methoxy)pyridazin-3-yl)amino)methyl)isoquinolin-1-amine]"
4,< 1 nM,"Cc1cc2c(N)nccc2c(C)c1CNc1cc(OCc2cn3cc(C(F)(F)F)ccc3n2)cnn1 [Example 424, 5,7-dimethyl-6-(((5-((6-(trifluoromethyl)imidazo[1,2-a]pyridin-2-yl)methoxy)pyridazin-3-yl)amino)methyl)isoquinolin-1-amine]"
5,< 1 nM,"Cc1ccc2nc(COc3cnnc(NCc4c(C)cc5c(N)nccc5c4C)c3)cn2c1 [Example 425, 5,7-dimethyl-6-(((5-((6-methylimidazo[1,2-a]pyridin-2-yl)methoxy)pyridazin-3-yl)amino)methyl)isoquinolin-1-amine]"
6,< 1 nM,"Cc1cc2c(N)nccc2c(C)c1CNc1cc(OCc2ccc(Oc3cccn(C)c3=O)cc2)cnn1 [Example 427, 3-(4-(((6-(((1-amino-5,7-dimethylisoquinolin-6-yl)methyl)amino)pyridazin-4-yl)oxy)methyl)phenoxy)-1-methylpyridin-2(1H)-one]"
7,1 to 10 nM,"Cc1cc2c(N)nccc2c(C)c1CNc1cc(N(C)Cc2ccc3ncccc3c2)cnn1 [Example 428, N^3-((1-amino-5,7-dimethylisoquinolin-6-yl)methyl)-N^5-methyl-N^5-(quinolin-6-ylmethyl)pyridazine-3,5-diamine]"
8,10 to 100 nM,"Cc1cc2c(N)nccc2c(C)c1CNc1cc(OCc2csc(-c3ccccc3)n2)cnn1 [Example 430, 5,7-dimethyl-6-(((5-((2-phenylthiazol-4-yl)methoxy)pyridazin-3-yl)amino)methyl)isoquinolin-1-amine]"
9,< 1 nM,"Cc1cc2c(N)nccc2c(C)c1CNc1cc(OCc2ccc(Cn3ccc(C4CC4)n3)cc2)cnn1 [Example 431, 6-(((5-((4-((3-cyclopropyl-1H-pyrazol-1-yl)methyl)benzyl)oxy)pyridazin-3-yl)amino)methyl)-5,7-dimethylisoquinolin-1-amine]"
10,< 1 nM,"Cc1cc2c(N)nccc2c(C)c1CNc1cc(OCc2ccc(CN3CCCCC3=O)cc2)cnn1 [Example 433, 1-(4-(((6-(((1-amino-5,7-dimethylisoquinolin-6-yl)methyl)amino)pyridazin-4-yl)oxy)methyl)benzyl)piperidin-2-one]"
11,< 1 nM,"Cc1cc2c(N)nccc2c(C)c1CNc1cc(OCc2ccc(CN3CCOCC3=O)cc2)cnn1 [Example 434, 4-(4-(((6-(((1-amino-5,7-dimethylisoquinolin-6-yl)methyl)amino)pyridazin-4-yl)oxy)methyl)benzyl)morpholin-3-one]"
